{"source": "patent US20130142784A1", "about": "(The Board of Trustees of the University of Illinois, priority 2010, published 2013)", "key": {"GATA-3 promoter [1]": {"system": "GATA-3 promoter", "assay": "ChIP assay, Rb binding", "assay_type": "cell-based, human", "settings": "compared with control siRNA", "experimental": "(§1) The mouse GATA-3 promoter contains three FoxM1 consensus sequences within 2 kb of the transcriptional start site. Whether FoxM1 directly regulated GATA-3 at the RNA level was investigated using chromatin immunoprecipitation (ChIP) assay. Cells were fixed in 1% formaldehyde for 10 minutes to allow crosslinking and then quenched with […] glycine. For in vivo ChIP assays, single cell suspensions were generated using collagenase/hyaluronidase followed by fixing. Cells were collected and lysed in SDS lysis buffer (1% SDS, 10 mM EDTA, 50 mM Tris pH 8, protease and phosphatase inhibitors). Lysate was sonicated, pre-cleared, and incubated with antibodies against GFP (Clontech, JL-8), GATA-3 (Santa Cruz HG3-31), FoxM1 (Major et al., 2004, “Forkhead box M1B transcriptional activity requires binding of Cdk-cyclin complexes for phosphorylation-dependent recruitment of p300/CBP coactivators” Mol Cell Biol 24: 2649-61), DNMT3b (Imgenex 52A1018), or Rb (Cell Signaling, 4H1) followed by purification with Protein-A and Protein-G Sepharose beads in the presence of salmon sperm DNA (Upstate). Beads were washed and DNA extracted using a PCR purification kit (Qiagen). PCR products were visualized by gel electrophoresis or analyzed using SYBR Green (Bio-Rad), normalized to the IgG control (Santa Cruz Biotechnology)."}, "SKBR3 resistant cells [2]": {"system": "SKBR3 resistant cells", "assay": "cell number after FoxM1 siRNA knockdown and HERCEPTIN", "assay_type": "cell-based, human", "settings": "in conjunction with HERCEPTIN", "experimental": "The source of resistance in these lines was not uniform, as an increase in phosphorylated Akt was only observed in SKBR3 cells. FoxM1 levels in parental and resistant lines were assayed by western blot analysis. Extracts were prepared in lysis buffer containing 1 mM EDTA, 0.15M NaCl, 0.05M Tris-HCl pH 7.5, and 0.5% Triton-X. Phosphatate Inhibitor Cocktail Set II (Calbiochem) and protease inhibitor (Roche) were added before each experiment using the rabbit polyclonal antibody referenced above. Quantification was performed using Image J software (NIH).\nAdditionally, levels of cell cycle regulators, Polo-like Kinase 1 (1.5-fold) and Cyclin B1 (16.6-fold) were amplified in the resistant line as compared to the parental control line (FIG. 3B). GAPDH is used as a loading control to ensure that the same amount of RNA was added to each reaction. All bands are normalized to GAPDH bands from the same sample and then normalized values from parental and resistant cells can be compared. […] The control (5′ […] 3′, SEQ ID NO:12) and FoxM1 targeting siRNA (5′ […] 3′, SEQ ID NO:9) were both from Dharmacon, and purified using standard desalting methods. Prior to transfection, plates are washed and cells are placed in serum-free media. siRNA was added to a final concentration of 7.5 pm to each plate using Lipofectamine 2000 (Invitrogen) transfection. […]"}, "GATA-3 promoter [3]": {"system": "GATA-3 promoter", "assay": "ChIP assay, DNMT3b binding", "assay_type": "cell-based, human", "settings": "compared with control siRNA", "experimental": "as §1\nDNMT3b has been specifically implicated in mammary tumor biology. […]"}, "[4]": {"system": "cells with HER2/ErbB2 amplification", "settings": "on average; cited from earlier work"}, "SKBR3 cells": {"system": "SKBR3 cells", "assay": "cell viability, CellTiter-Glo Luminescent assay, paclitaxel", "assay_type": "cell-based, human", "settings": "for IC50: Homo sapiens, TAXOL 24 hours; for cells survived: 0.1 μM, seven days", "experimental": "After seven days of treatment in a low dose of paclitaxel (TAXOL) (0.1 μM), only 25% of SKBR3-pBabe cells survived, while nearly 50% of SKBR3-FoxM1 cells survived (FIG. 4A)."}, "[5]": {"system": "polymerized and soluble tubulin fractions of SKBR3-pBabe and SKBR3-FoxM1 expressing lines", "assay": "polymerized vs soluble tubulin fractionation and western blot", "assay_type": "cell-based, human", "experimental": "In addition, the possibility that FoxM1 induced altered microtubule dynamics was investigated. Paclitaxel has been known to stabilize tubulin, and thus the ratio of polymerized to soluble microtubule fractions was compared. Cell lysates of SKBR3-pBabe and SKBR3-FoxM1 expressing lines untreated or treated with paclitaxel were fractionated to obtain polymerized and soluble tubulin fractions. […] Briefly, cells were seeded at 80% confluency in 24-well plates, collected in hypotonic buffer (1 mM MgCl2, 2 mM EGTA, 0.5% Nonidet P-40, 20 mM Tris-HCl pH 6.8) and centrifuged for 10 minutes at room temperature (14,000 rpm). The supernatant was used as the soluble fraction while the pellet was used as the polymerized fraction."}, "[6]": {"system": "MDA-MB-453 resistant cells", "assay": "colony forming assay, ARF-derived peptide and trastuzumab", "assay_type": "cell-based, human", "settings": "with trastuzumab; peptide 2 μM", "experimental": "(§2) FIGS. 6A and 6B are graphs showing quantitative colony forming assay of parental or resistant SKBR3 and MDA-MB-453 cells treated with either ARF-peptide or mutant peptide (2 μM). […] Also shown below the graphs are images of representative wells of cells from such colony-forming assays.\n(§3) The cells were maintained in HERCEPTIN thereafter. […] Quantification was done using Adobe Photoshop.\n(§4) Studies have shown that FoxM1 is inhibited by a small peptide that contains a 19-amino acid region of the p19ARF protein (residues 26 to 44) (SEQ ID NO:2). […] Treatment with the ARF-derived peptide and trastuzumab led to a 90% reduction in cell numbers in both SKBR3 and MDA-MB-453 resistant cells as measured by colony forming assays (following the same protocol as described above in Example 5) (FIG. 6A)."}, "SKBR3 resistant cells [7]": {"system": "SKBR3 resistant cells", "assay": "colony forming assay, ARF-derived peptide and trastuzumab", "assay_type": "cell-based, human", "settings": "with trastuzumab; peptide 2 μM", "experimental": "as §2, §3, §4"}, "[8]": {"system": "hepatocellular carcinoma cells", "settings": "mouse; cited from earlier work"}, "[9]": {"system": "SKBR3-pBabe and FoxM1 cells", "assay": "surviving cells after ARF-peptide added to HERCEPTIN, paclitaxel or combination", "assay_type": "cell-based, human", "experimental": "as §2\nThe ability of the ARF-peptide to sensitize FoxM1-expressing cells to treatment was also investigated."}, "[10]": {"settings": "FoxM1-expressing cells, with HERCEPTIN and paclitaxel combination treatment"}}, "note": "Ends that are not written are not given here.", "data": [{"compound": "5′ GGACCACUUUCCCUACUUUUU 3′ (listed as RNA, chemistry not given here) [FoxM1 targeting siRNA]", "values": [{"measurement": "Rb binding to GATA-3 promoter", "setting": "GATA-3 promoter [1]", "value": "could not bind to the GATA-3 promoter"}, {"measurement": "reduction in cell number", "setting": "SKBR3 resistant cells [2]", "value": "more than 75%"}, {"measurement": "DNMT3b binding to GATA-3 promoter at −747 and −1431", "setting": "GATA-3 promoter [3]", "value": "significantly decreased"}]}, {"compound": "CC(=O)O[C@H]1C(=O)[C@@]2(C)[C@H]([C@H](OC(=O)c3ccccc3)[C@]3(O)C[C@H](OC(=O)[C@H](O)[C@@H](NC(=O)c4ccccc4)c4ccccc4)C(C)=C1C3(C)C)[C@]1(OC(C)=O)CO[C@@H]1C[C@@H]2O", "note": "[paclitaxel]", "values": [{"measurement": "higher dose required to produce the same effect", "setting": "[4]", "value": 100, "unit": "fold"}, {"measurement": "IC50", "setting": "SKBR3 cells; SK-BR-3, SKBR3 cells transfected with FoxM1-specific siRNA 72 hours", "value": 10, "unit": "nM"}, {"measurement": "IC50", "setting": "SKBR3 cells; SK-BR-3, SKBR3 cells transfected with control siRNA 72 hours", "value": 60, "unit": "nM"}, {"measurement": "cells survived", "setting": "SKBR3 cells; SKBR3-FoxM1 cells", "value": "~50", "unit": "%"}, {"measurement": "cells survived", "setting": "SKBR3 cells; SKBR3-pBabe cells", "value": 25, "unit": "%"}, {"measurement": "ratio for β-tubulin", "setting": "[5]; FoxM1-expressing cells after paclitaxel treatment", "value": "did not show a significant change"}, {"measurement": "α- and β-tubulin distribution", "setting": "[5]; SKBR3-pBabe cells after paclitaxel treatment", "value": "dramatic shift towards the polymerized fraction"}]}, {"compound": "ARF-derived peptide: cell-penetrating peptide inhibitor of FoxM1 containing a 19-amino acid region of the p19ARF protein (residues 26 to 44) (KFVRSRRPRTASCALAFVN; not fully specified; UniProt Q64364 26-44, looked up, fragment)", "values": [{"measurement": "reduction in cell numbers", "setting": "[6]", "value": 90, "unit": "%"}, {"measurement": "reduction in cell numbers", "setting": "SKBR3 resistant cells [7]", "value": 90, "unit": "%"}, {"measurement": "proliferation and apoptosis of hepatocellular carcinoma cells in vivo", "setting": "[8]", "value": "reduce proliferation and induce apoptosis"}, {"measurement": "cell killing", "setting": "[9]; [10]", "value": "more than 97%"}, {"measurement": "cells surviving", "setting": "[9]; [10]", "value": "less than 3%"}, {"measurement": "cell number compared to mutant peptide", "setting": "[9]; added to HERCEPTIN, paclitaxel, or combination treatment, three days", "value": "dramatic reduction in cell number"}, {"measurement": "cell killing at the same dosage compared to mutant peptide", "setting": "[9]; pBabe cells, all treatments", "value": "greater cell killing"}]}]}
